From patent US20250346576A1, “KCNT1 INHIBITORS COMPRISING A PYRAZOLE CORE AND METHODS OF USE” (PRAXIS PRECISION MEDICINES, INC., priority 2022, published 2025) come the findings set out here.

A short description of series [1]: Kinetic solubility assay (shake flask, HPLC-UV). It is filed as physicochemical. Conditions: aqueous buffer, kinetic from dmso stock, 50 mM pH 7.4 phosphate buffer, room temperature. Here is the method:
Kinetic Solubility Assay: The Kinetic solubility assay employed the shake flask method followed by HPLC-UV analysis. The following step-wise procedure is used: • 1) Weigh and dissolve the samples in 100% DMSO as the stock solution of 10 mM. About 10 μL (compound/Media) of stock solution is needed in this assay. • 2) Add the test compounds and controls (10 mM in DMSO, 10 μL/vial) into the 50 mM pH 7.4 phosphate buffer (490 μL/well) placed in a Mini-Uniprep filter. • 3) Vortex the samples of kinetic solubility for 2 minutes. • 4) Incubate and shake the solubility solutions on an orbital shaker with 800 rpm at room temperature for 24 hours. • 5) Centrifuge at 4000 rpm, 20° C. for 10 minutes. • 6) Transfer 400 μL (with or without dilution) of each solubility supernatant into 96-deep well for analysis after the samples will be directly filtered by the syringeless filter device. • 7) Determine the test compound concentration of the filtrate using HPLC-UV. • 8) Inject at least 5 UV standard solutions into HPLC from low to high concentration subsequently and then test the Kinetic solubility supernatant in duplicate. • 9) Use the QC samples to monitor Kinetic solubility determination process.

The nature of series [2]: Log D assay (1-octanol/buffer shake flask, LC/MS/MS). It is filed as physicochemical. As to conditions: 1-octanol/phosphate buffer; 1-octanol / 0.1 M phosphate buffer pH 7.4. The text has this: Log D: The Log D assay is a miniaturized 1-octanol/buffer shake flask method followed by LC/MS/MS analysis. It is typically measured by determining the partition of a compound between an organic solvent (1-octanol) and an aqueous buffer (0.1 M phosphate buffer, pH 7.4; Varied buffer pH can be set). Since log D is pH dependent, the pH of the aqueous phase is always specified and is commonly measured at pH 7.4, the physiological pH of body fluids. […] Correct the peak areas by dilution factors and embedded internal standard, and the ratio of the corrected peak areas will be used to calculate the results (Log D value). • 8) Use the QC samples to monitor the process Log D determination. • 9) Data Analysis: The Log D value for each compound is calculated by the following equation: […]

Series [3] in a line: Liver microsome metabolic stability assay (NADPH). Conditions: human liver microsomes, 1.0 μM compound, 0.5 mg/ml protein, 37° C., read-out: CLint (HClint). It is filed as in vitro ADME. How it is done:
Liver Microsome Metabolic Stability Assay (NADPH): • 1) Test compounds were incubated at 37° C. with liver microsomes (pooled from multiple donors) at 1.0 μM in the presence of NADPH (˜1.0 mM) at 0.5 mg/ml microsomal protein. • 2) Positive controls include testosterone (3A4 substrate), propafenone (2D6) and diclofenac (2C9). They are also incubated with microsomes in the presence of NADPH. • 3) Time samples (0, 5, 15, 30, 45 and 60 minutes) are removed and immediately mixed with cold acetonitrile containing internal standard (IS). Test compound incubated with microsomes without NADPH for 60 min are also included. • 4) Duplicate point for each test condition (n=2). • 5) Samples are analyzed by LC/MS/MS; disappearance of test compound is assessed base on peak area ratios of analyte/IS (no standard curve). • 6) An excel data summary, calculated intrinsic clearance and T1/2 values are provided. • 7) The following equation is used to calculate the microsome clearance: […]
The mg microsomal protein/g liver weight is 45 for 5 species. The liver weight values will use 40 g/kg, 30 g/kg, 32 g/kg, 20 g/kg and 88 g/kg for rat, monkey, dog, human and mouse, respectively. The liver clearance will be calculated using CLint(mic) with the following equation: […]

For the compound `Cn1nc(C(F)(F)F)cc1C(=O)NC1(c2cc(-c3ccnc(C(F)(F)F)c3)nn2C)CCC1` [Compound 1064, 1-methyl-N-(1-(1-methyl-3-(2-(trifluoromethyl)pyridin-4-yl)-1H-pyrazol-5-yl)cyclobutyl)-3-(trifluoromethyl)-1H-pyrazole-5-carboxamide], in series [1], the solubility (kinetic) – broadly, the concentration staying in solution when a stock, usually in DMSO, is diluted into the medium – at 24 h was less than 1.6 µM. Moreover, the logD (in general, lipophilicity at a set pH, counting ionised and neutral species) at 1 h in series [2] was found to be 4.4. Further, the microsomal CLint at 1 μM in series [3] is less than 9.6 µL/min/mg.
With `Cn1nc(C(F)(F)F)cc1C(=O)NC(C)(C)c1cc(-c2ccnc(C(F)(F)F)c2)nn1C` [Compound 1063, 1-methyl-N-(2-(1-methyl-3-(2-(trifluoromethyl)pyridin-4-yl)-1H-pyrazol-5-yl)propan-2-yl)-3-(trifluoromethyl)-1H-pyrazole-5-carboxamide], the solubility (kinetic) at 24 h in series [1] was less than 1.6 µM. This compound also came in with a logD at 1 h in series [2] of 3. The microsomal CLint at 1 μM in series [3] was less than 9.6 µL/min/mg.
